Measured values published in paper PMC6923382, “Small molecules that inhibit TNF signalling by stabilising an asymmetric form of the trimer” (Nature Communications, 2019).
Where two headings read alike, the source gives them in different places.

Key:
[1] = Blood exposure of UCB-9260 in the mouse models; assay type: in vivo; conditions: mouse, blood
TNF [2] = molecular target: T1, TNF (Homo sapiens, UniProt P01375); assay: Biacore binding with and without non-ionic detergent; design: stabilise an asymmetrical form of the soluble TNF trimer; conditions: 0.01% v/v Triton X-100 and 0.025% v/v Tween-80; Biacore T200
Description: Experiments to show any effect of addition of non-ionic detergent were performed on a Biacore, with human TNF on the solid phase and compounds in solution phase in the presence and absence of 0.01% v/v Triton X-100 and 0.025% v/v Tween-80.
Three Biacore T200s were treated with sodium hypochlorite to remove any traces of detergent. Each machine was equilibrated in either HBS with no detergent (control), HBS:
Tween-P80 (0.025% v/v) or HBS: Triton X-100 (0.01% v/v). Human TNF was tethered to ~ 2000 RU before equilibration in the equivalent control or detergent buffers plus 1% DMSO. […]
were fitted to a BIAevaluation T200 1:1 algorithm and the fitted data shown. […]
Target sequence in this assay (P01375 77-233 limits assumed): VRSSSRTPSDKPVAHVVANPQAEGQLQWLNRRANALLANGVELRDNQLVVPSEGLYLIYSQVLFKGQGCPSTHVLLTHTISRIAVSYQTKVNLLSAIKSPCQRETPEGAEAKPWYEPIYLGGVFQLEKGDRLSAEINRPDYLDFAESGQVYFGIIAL

TNF [3] = molecular target: T1, TNF; assay: Biacore kinetics of binding; design: Human TNF (CID2043, UniProt P01375 residues 77–233); 6XHis-Smt3 (N, cleaved yes); host or cells: E. coli TOP10; conditions: SPR single-cycle; linked TNF with n-terminal HKH tag; read-out: KD
Description: Surface plasmon resonance using a Biacore T100/T200 was used to measure the association rate constant (ka), the dissociation rate constant (kd) and the affinity (KD) of compounds. TNF (VCID 2043 Beryllium) was immobilised to approximately 5 kRU as described above and equilibrated for at least 5 h in HBS P + buffer with 5% DMSO. UCB-6876 was serially diluted from 187.5 µM, flowing over the immobilised TNF at 50 µL/min for 3 min before allowing full dissociation under flow for at least 6 min. […] […] The compounds were allowed to dissociate for 2 h under flow.
Target sequence in this assay (P01375 with tags, fused parts or gaps): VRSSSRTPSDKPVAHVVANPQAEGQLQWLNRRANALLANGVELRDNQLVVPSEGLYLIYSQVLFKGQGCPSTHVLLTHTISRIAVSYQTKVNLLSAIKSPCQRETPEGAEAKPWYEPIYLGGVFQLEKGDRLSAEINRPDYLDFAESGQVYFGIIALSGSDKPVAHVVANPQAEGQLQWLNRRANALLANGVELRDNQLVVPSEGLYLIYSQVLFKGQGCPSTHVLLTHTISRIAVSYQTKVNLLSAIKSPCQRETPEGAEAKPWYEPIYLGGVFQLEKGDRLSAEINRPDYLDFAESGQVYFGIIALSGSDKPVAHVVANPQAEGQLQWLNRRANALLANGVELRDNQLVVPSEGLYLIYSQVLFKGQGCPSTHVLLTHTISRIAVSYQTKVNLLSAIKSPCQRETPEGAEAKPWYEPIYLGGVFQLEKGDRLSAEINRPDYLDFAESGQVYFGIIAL

Cc1ccc(C)c(Cn2c(C(O)c3ccncc3)nc3ccc(-c4cnn(C)c4)cc32)c1 (stereo not drawn) [UCB-9260]
concentration at 0.5 h ([1]; Balb/c, oral, 30 mg/kg, 30 mg/kg p.o., mouse TNF neutrophilia model, mean n=3 ± s.e.m., read-out: Blood concentration 0.5h post dose total): 9.36 µM
concentration at 0.5 h ([1]; Balb/c, oral, 30 mg/kg, mouse TNF neutrophilia model, individual mice, 0.5h post dose, read-out: Total exposure): 9.98 µM
concentration at 0.5 h ([1]; Balb/c, oral, 30 mg/kg, mouse TNF neutrophilia model, individual mice, read-out: Free exposure): 0.255 µM
concentration at 0.5 h ([1]; Balb/c, oral, 100 mg/kg, 100 mg/kg p.o., human TNF neutrophilia model, Fu 2.4%, read-out: Blood concentration 0.5h post dose (free)): 0.716 ± 0.093 µM
concentration at 0.5 h ([1]; Balb/c, oral, 100 mg/kg, 100 mg/kg p.o., human TNF neutrophilia model, mean n=3 ± s.e.m., read-out: Blood concentration 0.5h post dose total): 29.8 µM
concentration at 0.5 h ([1]; Balb/c, oral, 100 mg/kg, 100 mg/kg p.o., mouse TNF neutrophilia model, Fu 2.4%, read-out: Blood concentration 0.5h post dose (free)): 1.35 µM
concentration at 0.5 h ([1]; Balb/c, oral, 100 mg/kg, 100 mg/kg p.o., mouse TNF neutrophilia model, mean ± s.e.m., read-out: Blood concentration 0.5h post dose total): 56.1 µM
concentration at 0.5 h ([1]; Balb/c, oral, 100 mg/kg, human TNF neutrophilia model, individual mice, 0.5h post dose, read-out: Total exposure): 29.1 µM
concentration at 0.5 h ([1]; Balb/c, oral, 100 mg/kg, human TNF neutrophilia model, individual mice, read-out: Free exposure): 0.886 µM
concentration at 0.5 h ([1]; Balb/c, oral, 300 mg/kg, 300 mg/kg p.o., human TNF neutrophilia model, Fu 2.4%, read-out: Blood concentration 0.5h post dose (free)): 1.19 µM
concentration at 0.5 h ([1]; Balb/c, oral, 300 mg/kg, 300 mg/kg p.o., human TNF neutrophilia model, mean n=3 ± s.e.m., read-out: Blood concentration 0.5h post dose total): 49.5 µM
concentration at 0.5 h ([1]; Balb/c, oral, 300 mg/kg, 300 mg/kg p.o., mouse TNF neutrophilia model, Fu 2.4%, read-out: Blood concentration 0.5h post dose (free)): 1.27 µM
concentration at 0.5 h ([1]; Balb/c, oral, 300 mg/kg, 300 mg/kg p.o., mouse TNF neutrophilia model, mean n=3 ± s.e.m., read-out: Blood concentration 0.5h post dose total): 53 µM
concentration at 0.5 h ([1]; Balb/c, oral, 300 mg/kg, human TNF neutrophilia model, individual mice, 0.5h post dose, read-out: Total exposure): 41.5 µM
concentration at 0.5 h ([1]; Balb/c, oral, 300 mg/kg, human TNF neutrophilia model, individual mice, read-out: Free exposure): 1.19 µM
concentration at 0.5 h ([1]; Balb/c, oral, 300 mg/kg, mouse TNF neutrophilia model, individual mice, 0.5h post dose, read-out: Total exposure): 63 µM
concentration at 0.5 h ([1]; Balb/c, oral, 300 mg/kg, mouse TNF neutrophilia model, individual mice, read-out: Free exposure): 1.17 µM
concentration at 1 h ([1]; male, Balb/c, oral, 10 mg/kg, 10 mg/kg p.o., zymosan model, Fu 2.4%, read-out: Blood concentration 1h post dose (free)): 0.002 ± 0.0004 µM
concentration at 1 h ([1]; male, Balb/c, oral, 10 mg/kg, 10 mg/kg p.o., zymosan model, mean n=8 ± s.e.m., read-out: Blood concentration 1h post dose (total)): 0.086 ± 0.015 µM
concentration at 1 h ([1]; male, Balb/c, oral, 30 mg/kg, 30 mg/kg p.o., zymosan model, Fu 2.4%, read-out: Blood concentration 1h post dose (free)): 0.07 ± 0.007 µM
concentration at 1 h ([1]; male, Balb/c, oral, 30 mg/kg, 30 mg/kg p.o., zymosan model, mean n=8 ± s.e.m., read-out: Blood concentration 1h post dose (total)): 2.9 µM
concentration at 1 h ([1]; male, Balb/c, oral, 30 mg/kg, zymosan model, individual mice, read-out: free exposure 1h post dose): 0.0468 µM
concentration at 1 h ([1]; male, Balb/c, oral, 30 mg/kg, zymosan model, individual mice, read-out: total exposure 1h post dose): 1.95 µM
concentration at 1 h ([1]; male, Balb/c, oral, 100 mg/kg, 100 mg/kg p.o., zymosan model, Fu 2.4%, read-out: Blood concentration 1h post dose (free)): 0.63 ± 0.098 µM
concentration at 1 h ([1]; male, Balb/c, oral, 100 mg/kg, 100 mg/kg p.o., zymosan model, mean n=8 ± s.e.m., read-out: Blood concentration 1h post dose (total)): 26.3 µM
concentration at 1 h ([1]; male, Balb/c, oral, 300 mg/kg, 300 mg/kg p.o., zymosan model, Fu 2.4%, read-out: Blood concentration 1h post dose (free)): 0.677 ± 0.121 µM
concentration at 1 h ([1]; male, Balb/c, oral, 300 mg/kg, 300 mg/kg p.o., zymosan model, mean n=8 ± s.e.m., read-out: Blood concentration 1h post dose (total)): 28.2 µM
concentration at 1 h ([1]; 150 mg/kg, 150 mg/kg B.I.D., CAIA model, mean ± s.e.m., read-out: Blood concentration total, 1h post dose): 17.3 µM
concentration at 6 h ([1]; 150 mg/kg, 150 mg/kg B.I.D., CAIA model, mean ± s.e.m., read-out: Blood concentration total, 6h post dose): 9.97 µM
concentration at 1 h ([1]; 150 mg/kg, 150 mg/kg B.I.D., CAIA model, read-out: Blood concentration (free), 1h post dose): 0.415 ± 0.1 µM
concentration at 6 h ([1]; 150 mg/kg, 150 mg/kg B.I.D., CAIA model, read-out: Blood concentration (free), 6h post dose): 0.239 ± 0.101 µM
concentration at 0.5 h ([1]; oral, 10 mg/kg, 10 mg/kg p.o., human TNF neutrophilia model, Fu 2.4%, read-out: Blood concentration 0.5h post dose (free)): 0.02 ± 0.004 µM
concentration at 0.5 h ([1]; oral, 30 mg/kg, 30 mg/kg p.o., human TNF neutrophilia model, Fu 2.4%, read-out: Blood concentration 0.5h post dose (free)): 0.203 ± 0.059 µM
concentration at 0.5 h ([1]; oral, 30 mg/kg, 30 mg/kg p.o., human TNF neutrophilia model, mean n=3 ± s.e.m., read-out: Blood concentration 0.5h post dose total): 8.46 µM
effect of non-ionic detergents on binding to human TNF (TNF [2]): does not alter the binding
Kd (TNF [3]): 0.013 µM
